Test results: patent US4469707A, “Method for treatment of senile dementia” (Astra Lakemedel Aktiebolag, priority 1983, dated 1984)
“Also recorded” adds a separate entry of the source.

What was measured:
[1] = system: oxotremorine induced tremor; experiment: Potentiation of oxotremorine induced tremor; format: in vivo; conditions: mice; for Mean tremor score after pretreatment: score 0-2
Description: (§1) Saline was administered as a blank. The tremor intensity was assessed visually for a 60 min period starting from the injection of oxotremorine and physostigmine respectively. The following rating scores were used:
(§2) 1--moderate or discontinuous tremor of the head and forelimbs
(§3) 2--strong tremor involving the whole body

[2] = system: physostigmine induced tremor; experiment: Potentiation of physostigmine induced tremor; format: in vivo; conditions: mice; for Mean tremor score after pretreatment: score 0-2
Description: as §1, §2, §3

tremor = experiment: Tremor caused by alaproclate per se; format: in vivo, mice; conditions: in words
Description: Saline was administered as a blank. The tremor intensity was assessed visually for a 60 min period starting from the injection of oxotremorine and physostigmine respectively.

CC(N)C(=O)OC(C)(C)Cc1ccc(Cl)cc1 (stereo not drawn) [Alaproclate, 2-(4-chloro-phenyl)-1,1-dimethylethyl-2-aminopropanoate]
Potentiation of oxotremorine induced tremor ([1]; in words): able to enhance; also recorded: potentiates
Mean tremor score after pretreatment ([1]; alaproclate 20 mg/kg i.p., 10 min after oxotremorine 100 μg/kg s.c.): 0,7
Mean tremor score after pretreatment ([1]; alaproclate 20 mg/kg i.p., 15 min after oxotremorine 100 μg/kg s.c.): 1,0
Mean tremor score after pretreatment ([1]; alaproclate 20 mg/kg i.p., 30 min after oxotremorine 100 μg/kg s.c.): 0,8
Mean tremor score after pretreatment ([1]; alaproclate 40 mg/kg i.p., 5 min after oxotremorine 100 μg/kg s.c.): 0,3
Mean tremor score after pretreatment ([1]; alaproclate 40 mg/kg i.p., 10 min after oxotremorine 100 μg/kg s.c.): 1,0
Mean tremor score after pretreatment ([1]; alaproclate 40 mg/kg i.p., 15 min after oxotremorine 100 μg/kg s.c.): 1,3
Mean tremor score after pretreatment ([1]; alaproclate 40 mg/kg i.p., 30 min after oxotremorine 100 μg/kg s.c.): 1,2
Mean tremor score after pretreatment ([1]; alaproclate 40 mg/kg i.p., 60 min after oxotremorine 100 μg/kg s.c.): 0,5
Mean tremor score after pretreatment ([1]; alaproclate 60 mg/kg i.p., 5 min after oxotremorine 100 μg/kg s.c.): 0,1
Mean tremor score after pretreatment ([1]; alaproclate 60 mg/kg i.p., 10 min after oxotremorine 100 μg/kg s.c.): 1,0
Mean tremor score after pretreatment ([1]; alaproclate 60 mg/kg i.p., 15 min after oxotremorine 100 μg/kg s.c.): 1,5
Mean tremor score after pretreatment ([1]; alaproclate 60 mg/kg i.p., 30 min after oxotremorine 100 μg/kg s.c.): 1,6
Mean tremor score after pretreatment ([1]; alaproclate 60 mg/kg i.p., 60 min after oxotremorine 100 μg/kg s.c.): 1,0
Potentiation of physostigmine induced tremor ([2]; in words): able to enhance; also recorded: potentiates
Mean tremor score after pretreatment ([2]; alaproclate 20 mg/kg i.p., 5 min after physostigmine 200 μg/kg s.c.): 0,3
Mean tremor score after pretreatment ([2]; alaproclate 20 mg/kg i.p., 10 min after physostigmine 200 μg/kg s.c.): 0,8
Mean tremor score after pretreatment ([2]; alaproclate 20 mg/kg i.p., 15 min after physostigmine 200 μg/kg s.c.): 0,8
Mean tremor score after pretreatment ([2]; alaproclate 40 mg/kg i.p., 5 min after physostigmine 200 μg/kg s.c.): 0,3
Mean tremor score after pretreatment ([2]; alaproclate 40 mg/kg i.p., 10 min after physostigmine 200 μg/kg s.c.): 1,0
Mean tremor score after pretreatment ([2]; alaproclate 40 mg/kg i.p., 15 min after physostigmine 200 μg/kg s.c.): 0,7
Mean tremor score after pretreatment ([2]; alaproclate 40 mg/kg i.p., 30 min after physostigmine 200 μg/kg s.c.): 0,3
Mean tremor score after pretreatment ([2]; alaproclate 60 mg/kg i.p., 5 min after physostigmine 200 μg/kg s.c.): 0,7
Mean tremor score after pretreatment ([2]; alaproclate 60 mg/kg i.p., 10 min after physostigmine 200 μg/kg s.c.): 1,3
Mean tremor score after pretreatment ([2]; alaproclate 60 mg/kg i.p., 15 min after physostigmine 200 μg/kg s.c.): 0,8
Mean tremor score after pretreatment ([2]; alaproclate 60 mg/kg i.p., 30 min after physostigmine 200 μg/kg s.c.): 0,7
Tremor caused by the compound per se (tremor): does not cause tremor
